Experimental findings from patent US20070244103A1, “Novel Compounds Having an Anti-Bacterial Activity” (Morphochem Aktiengesellschaft Fur Kombinatorische Chemie, priority 2004, published 2007) are described below.

A value given as a limit tells only on which side of the number the result lay.

This experiment is described as follows: MIC of the examples against various organisms. As to conditions: against at least two of the above organisms (12-strain panel). The experiment is classed as cell-based. As for the experimental part: The MIC (μg/ml) of the examples against various organisms was determined: A. baumannii ATCC19606, E. cloacae ATCC23355, E. coli ATCC25922, K. pneumoniae ATCC27736, P. mirabilis ATCC29906, P. aeruginosa ATCC27853, S. maltophilia ATCC13637, S. aureus ATCC43300, S. epidermidis ATCC14990, S. haemolyticus ATCC29970, E. faecalis ATCC29212 and E. faecium ATC19434.
In general, MIC refers to the lowest concentration that inhibits growth of the organism. Consider `COc1ccc2ncc(Cl)c(C(O)CN3C4CCC3CC(NCc3ccc5c(c3)NC(=O)CS5)C4)c2n1` (stereo not drawn) [Example 29, 6-({8-[2-(3-Chloro-6-methoxy-[1,5]-naphthyridin-4-yl)-2-hydroxy-ethyl]-8-aza-bicyclo[3.2.1]oct-3-ylamino}-methyl)-4H-benzo[1,4]thiazin-3-one], for which the MIC was no more than 2 µg/mL.

Regarding `COc1ccc2nccc(C(O)CN3CCOC(CNCc4ccc5c(n4)NC(=O)CS5)C3)c2n1` (stereo not drawn) [Example 33, 6-[({4-[2-Hydroxy-2-(6-methoxy-[1,5]naphthyridin-4-yl)-ethyl]-morpholin-2-ylmethyl}amino)-methyl]-4H-pyrido[3,2-b][1,4]thiazin-3-one], the MIC was no more than 2 µg/mL.

On to `COc1cnc2cccc(C(O)CN3C4CCC3CC(NCc3ccc5c(c3)NC(=O)CO5)C4)c2n1` (stereo not drawn) [Example 80, 6-({8-[2-Hydroxy-2-(3-methoxy-quinoxalin-5-yl)-ethyl]-8-aza-bicyclo[3.2.1]oct-3-ylamino}-methyl)-4H-benzo[1,4]oxazin-3-one], for which the MIC was no more than 2 µg/mL.

As to `COc1cnc2cccc(C(O)CN3C4CCC3CC(NCc3ccc5c(c3)OCCO5)C4)c2c1` (stereo not drawn) [Example 39, 2-{3-[(2,3-Dihydro-benzo[1,4]dioxin-6-ylmethyl)-amino]-8-aza-bicyclo[3.2.1]oct-8-yl}-1-(3-methoxy-quinolin-5-yl)-ethanol], the minimum inhibitory concentration (MIC) was no more than 2 µg/mL.

On to `COc1ccc2nccc(C(O)CN3CCCC(CNC/C=C/c4ccccc4)C3)c2n1` (single isomer, unassigned) [Example 7, 1-(6-Methoxy-[1,5]-naphthyridin-4-yl)-2-{3-[((E)-3-phenyl-allylamino)-methyl]-piperidin-1-yl}-ethanol], for which the MIC was no more than 2 µg/mL.

Turning to `COc1ccc2nccc(C(O)CN3C4CCC3CC(NCc3ccc5c(c3)OCCO5)C4)c2n1` (single isomer, unassigned) [Example 10, 2-{3-[(2,3-Dihydro-benzo[1,4]dioxin-6-ylmethyl)-amino]-8-aza-bicyclo[3.2.1]oct-8-yl}-1-(6-methoxy-[1,5]-naphthyridin-4-yl)-ethanol], the MIC was no more than 2 µg/mL.

With `COc1cnc2cccc(C(O)CN3CCCC(CNCc4ccc5nsnc5c4)C3)c2c1` (single isomer, unassigned) [Example 41, 2-(3-{[(Benzo[1,2,5]thiadiazol-5-ylmethyl)-amino]-methyl}-piperidin-1-yl)-1-(3-methoxy-quinolin-5-yl)-ethanol], the MIC is no more than 2 µg/mL.

Take `COc1ccc2nccc(C(O)CN3C4CCC3CC(NCc3ccc5c(c3)OCO5)C4)c2n1` (single isomer, unassigned) [Example 9, 2-{3-[(Benzo[1,3]dioxol-5-ylmethyl)-amino]-8-aza-bicyclo[3.2.1]oct-8-yl}-1-(6-methoxy-[1,5]-naphthyridin-4-yl)-ethanol]: the MIC is no more than 2 µg/mL.

For `COc1cnc2cccc(C(O)CN3CCCC(CNCc4cc5c(cn4)OCCO5)C3)c2n1` (stereo not drawn) [Example 88, 2-(3-{[(2,3-Dihydro-[1,4]dioxino[2,3-c]pyridin-7-ylmethyl)-amino]-methyl}-piperidin-1-yl)-1-(3-methoxyquinoxalin-5-yl)-ethanol], the MIC was no more than 2 µg/mL.

For `COc1cnc2cccc(C(O)CN3C4CCC3CC(NCc3ccc5c(c3)OCCO5)C4)c2n1` (stereo not drawn) [Example 78, 2-{3-[(2,3-Dihydro-benzo[1,4]dioxin-6-ylmethyl)-amino]-8-aza-bicyclo[3.2.1]oct-8-yl}-1-(3-methoxy-quinoxalin-5-yl)-ethanol], the MIC was no more than 2 µg/mL.

Turning to `COc1ccc2nccc(NC(=O)C3CCCC(CNCc4ccc5c(c4)OCCO5)C3)c2n1` (stereo not drawn) [Example 19, 3-{[(2,3-Dihydro-benzo[1,4]dioxin-6-ylmethyl)-amino]-methyl}-cyclohexanecarboxylic acid (6-methoxy-[1,5]-naphthyridin-4-yl)-amide], the MIC was no more than 2 µg/mL.

As for `COc1ccc2nccc(C(O)CN3CCCC(CNCc4ccc5c(c4)NC(=O)CS5)C3)c2n1` (single isomer, unassigned) [Example 6, 6-[({1-[2-Hydroxy-2-(6-methoxy-[1,5]-naphthyridin-4-yl)-ethyl]-piperidin-3-ylmethyl}-amino)-methyl]-4H-benzo[1,4]thiazin-3-one], the MIC is no more than 2 µg/mL.
